Results from patent US20230131899A1, “INHIBITORS OF MICROBIALLY INDUCED AMYLOID” (Axial Therapeutics, Inc., priority 2020, published 2023).
Read-outs that look alike come from different tables or passages of the source.

Columns and labels:
[1] = system: CsgA gene expression (csgBAC promoter-GFP reporter) in E. coli UTI89; assay: In vitro live cell fluorescent reporter assay of CsgA transcription (Reporter Assay); format: cell-based
Protocol: In vitro live cell fluorescent reporter assay to determine effects of compounds on CsgA transcription. To assess the impact of compounds on CsgA gene expression, a live cell assay was performed using an engineered strain of E. coli UTI89 with a fluorescent CsgA gene expression reporter driven by the csgBAC promoter. In the reporter strain, a gene encoding Green Fluorescent Protein (GFP) was placed immediately downstream of the full intergenic region between csgDEF and csgBAC, containing the csgBAC promoter and other transcriptional regulatory elements, and inserted in single copy into the E. coli UTI89 chromosome, as described in Cegelski et. al., “Small-molecule inhibitors target Escherichia coli amyloid biogenesis and biofilm formation,” Nat. Chem. Bio., 25 Oct. 2009. With this construct, GFP expression in the reporter strain was under the same regulation as CsgA expression. The reporter strain was struck out on a YESCA agar plate (1 g/L yeast extract, 10 g/L casamino acids, 20 g/L Bacto Agar) and grown at about 27° C. for 2 days, or until single colonies were sufficiently large to pick. A single colony of the reporter strain was used to inoculate 5 mL of YESCA broth (1 g/L yeast extract, 10 g/L casamino acids), which was grown overnight at about 27° C. The inoculum was diluted 1:10 in YESCA broth and the optical density at 600 nm (OD600) was measured on a SpectraMax M2 or M5e (Molecular Devices, San Jose, Calif.) spectrophotometer in cuvettes. The culture was then further diluted to achieve a final OD600 of 0.003, which was confirmed by measurement of the OD600. Compounds were diluted in dimethyl sulfoxide (DMSO) and plated on black clear-bottomed tissue culture-treated 96-well plates with 1.5 μL/well for final test concentrations from 0.14-100 μM. All assay wells, including vehicle controls and positive controls for inhibition, included 1% DMSO final. Vehicle control wells consisted of DMSO and the reporter strain to assess the expression of the reporter strain in the assay in the absence of any compound. […] 148.5 μL culture at OD600 0.003 in YESCA broth was added to all wells for 150 μL final volume. Plates were incubated at 27° C. for 20 hours, then GFP fluorescence signal for each well was read on a Spectramax M2 or M5e plate reader with excitation at 485 nm, emission at 525 nm, and a cutoff at 515 nm. OD600 for each well was also measured on the Spectramax M2 or M5e plate reader. […] Background fluorescence was subtracted from all wells, then fluorescence signal for each well was normalized to the mean of the vehicle control wells. Normalized dose response curves were plotted for each compound, and compound inhibition of CsgA transcription was determined by assessing the curve-fit IC50, bottom, top, span (top-bottom), and Hill slope using GraphPad Prism software version 8.1.1 (GraphPad Software, San Diego, Calif.). An additional metric used to evaluate compounds was the concentration at which the curve reached 50% of the expression level of the vehicle control. This was written as a custom analysis in GraphPad Prism according to the formula X[50], or the X value at which Y=50, ie, the compound concentration at which fluorescence of the reporter strain was calculated to reach 50% of the vehicle control fluorescence. Separately from the fluorescence data, OD600 values were normalized to the mean of the vehicle control wells, and dose response curves were plotted for each compound. OD600 reduction of greater than 10% indicated compounds had some toxicity or negative impact on bacterial growth. […]

E. coli CsgA = molecular target: T1, E. coli CsgA (Escherichia coli, UniProt P28307); assay: In vitro ThioflavinT assay of CsgA aggregation (CsgA ThT Assay); format: biochemical
T1 construct: made in house; host or cells: E. coli NEB 3016 slyD::kan, pET11d
T1 sequence (P28307 23-151): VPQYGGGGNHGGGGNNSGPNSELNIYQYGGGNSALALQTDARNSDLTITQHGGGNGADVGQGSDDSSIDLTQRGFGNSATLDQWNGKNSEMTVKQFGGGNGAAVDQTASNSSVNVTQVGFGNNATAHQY
Protocol: In vitro ThioflavinT assay to determine effects of compounds on CsgA aggregation. To assess the effects of compounds on aggregation of E. coli CsgA, a cell-free assay was performed using purified CsgA and Thioflavin T. In the assay, histidine-tagged CsgA was over-expressed in E. coli NEB 3016 slyD::kan cells harboring a pET11d vector containing a C-terminal 6× His tag. Following growth in rich media, CsgA production is induced at an OD600 of approximately 1.0 by addition of 0.5 mM IPTG (isopropyl beta-D-1-thiogalactopyranoside) followed by incubation at 37° C. for 1-4 hours with shaking at 200-250 rpm. Bacteria were resuspended in 8 M guanidine hydrochloride in 50 mM potassium phosphate buffer, pH 7.3 and lysed by sonication on ice using three 20 second intervals. The resulting lysate was incubated on a platform rocker for 1 hour at room temperature. After centrifugation at 10,000×g for 20 minutes, the supernatant was further sonicated on ice for three 20 second intervals and then incubated with nickel-nitrilotriacetic acid resin (Sigma) at room temperature for 1 hour in a 50 mL conical tube on a platform rocker. The resin was washed and pelleted 5 times with 45 mL 8 M guanidine in 50 mM potassium phosphate buffer pH 7.3. The resin was further washed and pelleted two times with 8 M guanidine hydrochloride in 50 mM potassium phosphate buffer pH 7.3 containing 12.5 mM imidazole. Purified CsgA protein was eluted two times with 5 mL of 6-8 M guanidine hydrochloride in 50 mM potassium phosphate buffer, pH 7.3 containing 250 mM imidazole. The eluted protein was aliquoted with 150 μL per aliquot, snap frozen in liquid nitrogen, and stored at −80 C. In order to obtain monomeric CsgA, the purified CsgA protein was thawed and passed through two pre-chilled desalting columns (Zeba) to remove imidazole and guanidine. The buffer exchanged protein was loaded onto a 30-kDa centrifugal filter unit (Amicon) and spun for 30 minutes at 7500×g to remove dimers and other oligomers. Protein concentration was assessed by the NanoDrop technique (Thermo Scientific), as is familiar to one skilled in the art. The CsgA aggregation assay was conducted in 96-well black non-binding surface or white untreated microplates with 20-40 μM ThioflavinT, 50 mM potassium phosphate buffer pH 7.3, 1% DMSO, CsgA at 2-20 μM, and compounds at 3.125-200 uM. The vehicle control wells contain all components of the assay except test compounds and represent the level of CsgA aggregation in the absence of any inhibitor or accelerator. Plates were incubated at room temperature in a Tecan Nano F200 plate reader with excitation at 438 nm using a 439 nm filter with a bandwidth of 8 nm, and emission at 495 nm with a 490 nm filter with a bandwidth of 10 nm, or in a SpectraMax M5, SpectraMax M2 or SpectraMax® i3X (Molecular Devices, San Jose, Calif.) spectrophotometer with excitation at 438 nm and emission at 495 nm. During the assay, plates were shaken initially for 5 seconds and subsequently for 3 seconds prior to fluorescent readings. Readings were performed every 15 minutes for up to 1005 minutes. The effect of compounds on CsgA aggregation in the assay was determined with data from 0-17 hours. Fluorescence values for each compound with CsgA were first adjusted by subtracting the average fluorescence of the compound in the absence of CsgA or in the presence of CsgA and compound at time 0 or 15 minutes. The data were analyzed in several ways:
1. The adjusted ThT fluorescence values were normalized by dividing them by the average fluorescence in the vehicle control wells containing CsgA. The median normalized fluorescence from 6-6.5 hours or 8-9 hours with the compound was expressed as a percentage of the median fluorescence observed in vehicle controls over the same time period. Percent inhibition of CsgA aggregation by a compound was determined by subtracting the percent average fluorescence with the compound relative to the vehicle controls from 100%. […]

[2] = Escherichia coli, read-out: Reporter Assay Abs IC50 (activity range), median Abs IC50 in the CsgA reporter assay, class symbol
[3] = Escherichia coli, read-out: Reporter Assay Abs IC50 (μM), median Abs IC50 in the CsgA reporter assay, N/A = maximum expression reduction is <50% of control
[4] = read-out: CsgA ThT Assay (10 μM CsgA) % Control AUC at 1005 minutes, 25 μM (activity range), CsgA 10 μM, black plates, compound 25 μM, 1005 minutes, class symbol
[5] = read-out: CsgA ThT Assay (10 μM CsgA) % Control AUC at 1005 minutes, 25 μM, mean AUC as % of DMSO control, CsgA 10 μM, black plates, compound 25 μM, 1005 minutes
[6] = read-out: CsgA ThT Assay (10 μM CsgA) % Control AUC at 1005 minutes, 100 μM (activity range), CsgA 10 μM, black plates, compound 100 μM, 1005 minutes, class symbol
[7] = read-out: CsgA ThT Assay (10 μM CsgA) % Control AUC at 1005 minutes, 100 μM, mean AUC as % of DMSO control, CsgA 10 μM, black plates, compound 100 μM, 1005 minutes
[8] = CsgA 10 μM, black plates, compound 25 μM, 1005 minutes, class symbol

| Structure (SMILES) | IC50 [1, 2] [µM] | IC50 [1, 3] [µM] | remaining activity at 25 µM (E. coli CsgA; [4]) [%] | remaining activity at 25 µM (E. coli CsgA; [5]) [%] | remaining activity at 100 µM (E. coli CsgA; [6]) [%] | remaining activity at 100 µM (E. coli CsgA; [7]) [%] | IC50 ([1]; Escherichia coli, read-out: Reporter Assay Abs IC50, activity range, class symbol) [µM] | remaining activity at 25 µM (E. coli CsgA; read-out: CsgA ThT Assay (2 μM CsgA) % Control Bmax 25 μM, activity range, class symbol, CsgA 2 μM, white plates, compound 25 μM) [%] | remaining activity at 25 µM (E. coli CsgA; read-out: CsgA ThT Assay (2 μM CsgA) % Control Bmax 25 μM, mean Bmax as percentage of DMSO control, CsgA 2 μM, white plates, compound 25 μM) [%] | remaining activity at 100 µM (E. coli CsgA; read-out: CsgA ThT Assay (2 μM CsgA) % Control Bmax 100 μM, activity range, class symbol, CsgA 2 μM, white plates, compound 100 μM) [%] | remaining activity at 100 µM (E. coli CsgA; read-out: CsgA ThT Assay (2 μM CsgA) % Control Bmax 100 μM, mean Bmax as percentage of DMSO control, CsgA 2 μM, white plates, compound 100 μM) [%] | IC50 ([1]; read-out: Reporter Assay Abs IC50 (activity range), median Abs IC50 in the CsgA reporter assay, class symbol) [µM] | IC50 ([1]; read-out: Reporter Assay Abs IC50, median Abs IC50 in the CsgA reporter assay, N/A = maximum expression reduction is <50% of control) [µM] | CsgA ThT Assay (10 μM CsgA) % Control AUC at 1005 minutes, 25 μM (activity range) (E. coli CsgA; [8]) | CsgA ThT Assay (10 μM CsgA) % Control AUC at 1005 minutes, 100 μM (activity range) (E. coli CsgA; CsgA 10 μM, black plates, compound 100 μM, 1005 minutes, class symbol) | CsgA ThT Assay (10 μM CsgA) % Control AUC at 1005 minutes, 25 μM (E. coli CsgA; mean AUC as % of DMSO control, CsgA 10 μM, black plates, compound 25 μM, 1005 minutes) [%] | CsgA ThT Assay (10 μM CsgA) % Control AUC at 1005 minutes, 100 μM (E. coli CsgA; mean AUC as % of DMSO control, CsgA 10 μM, black plates, compound 100 μM, 1005 minutes) [%] |
| --- | --- | --- | --- | --- | --- | --- | --- | --- | --- | --- | --- | --- | --- | --- | --- | --- | --- |
| CCc1c(Cc2cccc3ccccc23)c(-c2cccc(C(F)(F)F)c2)c2n(c1=O)C(C(=O)O)CN([C@H]1CC[C@@H](O)CC1)S2(=O)=O (stereo partly drawn) [Compound 124, 7-ethyl-2-((1s,4s)-4-hydroxycyclohexyl)-8-(naphthalen-1-ylmethyl)-6-oxo-9-(3-(trifluoromethyl)phenyl)-3,4-dihydro-2H,6H-pyrido[1,2-e][1,2,5]thiadiazine-4-carboxylic acid 1,1-dioxide] | 1.3 to 4.5 | 3.1 | 31 to 60 | 35 | 11 to 31 | 21 |  |  |  |  |  |  |  |  |  |  |  |
| CC(C)(C)c1ccc(CN2CC(C(=O)O)n3c2c(-c2cccc(C(F)(F)F)c2)c(Cc2cccc4ccccc24)c(Cl)c3=O)cc1 (stereo not drawn) [Compound 208, 1-(4-(tert-butyl)benzyl)-6-chloro-7-(naphthalen-1-ylmethyl)-5-oxo-8-(3-(trifluoromethyl)phenyl)-1,2,3,5-tetrahydroimidazo[1,2-a]pyridine-3-carboxylic acid] |  | 1 |  |  |  |  | < 1.3 | 31 to 60 | 46 | 11 to 31 | 25 |  |  |  |  |  |  |
| CCCCCN1CC(C(=O)O)n2c(c(-c3cccc(C(F)(F)F)c3)c(Cc3cccc4ccccc34)cc2=O)S1(=O)=O (single isomer, unassigned) [Compound 025b, 8-(naphthalen-1-ylmethyl)-6-oxo-2-pentyl-9-(3-(trifluoromethyl)phenyl)-3,4-dihydro-2H,6H-pyrido[1,2-e][1,2,5]thiadiazine-4-carboxylic acid 1,1-dioxide] |  |  |  |  |  |  |  |  |  |  |  | 1.3 to 4.5 | 2.4 | (++) (% control AUC of 31 to 60%) | (+) (% control AUC of greater than 60%) | 46 | 107 |
| CCCN1CC(C(=O)O)n2c(c(-c3cccc(C(F)(F)F)c3)c(Cc3cccc4ccccc34)cc2=O)S1(=O)=O (single isomer, unassigned) [Compound 016a, 8-(naphthalen-1-ylmethyl)-6-oxo-2-propyl-9-(3-(trifluoromethyl)phenyl)-3,4-dihydro-2H,6H-pyrido[1,2-e][1,2,5]thiadiazine-4-carboxylic acid 1,1-dioxide] | 4.6 to 10 | 8.3 |  | 21 | 11 to 31 | 14 |  |  |  |  |  |  |  | (+++) (% control AUC of 11 to 31%) |  |  |  |
| Nc1c(Cc2cccc3ccccc23)c(-c2cccc(C(F)(F)F)c2)c2n(c1=O)C(C(=O)O)CN(C[C@H](O)CO)S2(=O)=O (stereo partly drawn) [Compound 095, 7-amino-2-((S)-2,3-dihydroxypropyl)-8-(naphthalen-1-ylmethyl)-6-oxo-9-(3-(trifluoromethyl)phenyl)-3,4-dihydro-2H,6H-pyrido[1,2-e][1,2,5]thiadiazine-4-carboxylic acid 1,1-dioxide] | > 10 | 25.9 | > 60 | 91 | > 60 | 70 |  |  |  |  |  |  |  |  |  |  |  |
